Source: PubChem BioAssay (NCI)
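Interpolation was linear, between the two tested concentrations surrounding the appropriate level; five concentrations were tested over 48 hours in 96-well plates. GI50 marks 50% less growth. TGI marks complete inhibition of growth.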

Experiments:
Assay in all cases: NCI anticancer screen, dose series, 48 h
A498 renal = tested on: A498 renal
ACHN renal = tested on: ACHN renal
BT-549 breast = tested on: BT-549 breast
CAKI-1 renal = tested on: CAKI-1 renal
CCRF-CEM leukemia = tested on: CCRF-CEM leukemia
DU-145 prostate = tested on: DU-145 prostate
EKVX NSCLC = tested on: EKVX NSCLC
HCC-2998 colon = tested on: HCC-2998 colon
HCT-15 colon = tested on: HCT-15 colon
HOP-92 NSCLC = tested on: HOP-92 NSCLC
IGROV1 ovarian = tested on: IGROV1 ovarian
KM12 colon = tested on: KM12 colon
LOX IMVI melanoma = tested on: LOX IMVI melanoma
MALME-3M melanoma = tested on: MALME-3M melanoma
MCF7 breast = tested on: MCF7 breast
MDA-MB-231 breast = tested on: MDA-MB-231 breast
MDA-MB-435 = tested on: MDA-MB-435
NCI-H23 lung = tested on: NCI-H23 lung
NCI-H460 lung = tested on: NCI-H460 lung
OVCAR-3 ovarian = tested on: OVCAR-3 ovarian
OVCAR-4 ovarian = tested on: OVCAR-4 ovarian
OVCAR-5 ovarian = tested on: OVCAR-5 ovarian
PC-3 prostate = tested on: PC-3 prostate
RXF 393 renal = tested on: RXF 393 renal
SF-268 CNS = tested on: SF-268 CNS
SF-295 CNS = tested on: SF-295 CNS
SF-539 CNS = tested on: SF-539 CNS
SK-MEL-2 melanoma = tested on: SK-MEL-2 melanoma
SK-MEL-28 melanoma = tested on: SK-MEL-28 melanoma
SK-MEL-5 melanoma = tested on: SK-MEL-5 melanoma
SN12C renal = tested on: SN12C renal
SNB-19 CNS = tested on: SNB-19 CNS
SNB-75 CNS = tested on: SNB-75 CNS
SR leukemia = tested on: SR leukemia
SW-620 colon = tested on: SW-620 colon
TK-10 renal = tested on: TK-10 renal
UACC-62 melanoma = tested on: UACC-62 melanoma
UO-31 renal = tested on: UO-31 renal

CN1CCN(CCCOc2ccc3ncnc(Nc4ccc(OCc5cccc(F)c5)c(Cl)c4)c3c2)CC1
GI50 (A498 renal): 1130 nM
TGI (A498 renal): 2420 nM
GI50 (ACHN renal): 639 nM
TGI (ACHN renal): 1950 nM
GI50 (BT-549 breast): 1580 nM
TGI (BT-549 breast): 3000 nM
GI50 (CAKI-1 renal): 1130 nM
TGI (CAKI-1 renal): 2340 nM
GI50 (CCRF-CEM leukemia): 1570 nM
TGI (CCRF-CEM leukemia): 3530 nM
GI50 (DU-145 prostate): 1100 nM
TGI (DU-145 prostate): 2350 nM
GI50 (EKVX NSCLC): 1140 nM
TGI (EKVX NSCLC): 2470 nM
GI50 (HCC-2998 colon): 1700 nM
TGI (HCC-2998 colon): 3170 nM
GI50 (HCT-15 colon): 1060 nM
TGI (HCT-15 colon): 2350 nM
GI50 (HOP-92 NSCLC): 1150 nM
TGI (HOP-92 NSCLC): 2540 nM
GI50 (IGROV1 ovarian): 1020 nM
TGI (IGROV1 ovarian): 2550 nM
GI50 (KM12 colon): 1730 nM
TGI (KM12 colon): 3210 nM
GI50 (LOX IMVI melanoma): 1750 nM
TGI (LOX IMVI melanoma): 3230 nM
GI50 (MALME-3M melanoma): 1650 nM
TGI (MALME-3M melanoma): 3230 nM
GI50 (MCF7 breast): 1500 nM
TGI (MCF7 breast): 2960 nM
GI50 (MDA-MB-231 breast): 1620 nM
TGI (MDA-MB-231 breast): 3100 nM
GI50 (MDA-MB-435): 1610 nM
TGI (MDA-MB-435): 3110 nM
GI50 (NCI-H23 lung): 1690 nM
TGI (NCI-H23 lung): 3200 nM
GI50 (NCI-H460 lung): 1780 nM
TGI (NCI-H460 lung): 3380 nM
GI50 (OVCAR-3 ovarian): 1480 nM
TGI (OVCAR-3 ovarian): 2920 nM
GI50 (OVCAR-4 ovarian): 1570 nM
TGI (OVCAR-4 ovarian): 3350 nM
GI50 (OVCAR-5 ovarian): 1600 nM
TGI (OVCAR-5 ovarian): 3050 nM
GI50 (PC-3 prostate): 1740 nM
TGI (PC-3 prostate): 3390 nM
GI50 (RXF 393 renal): 1580 nM
TGI (RXF 393 renal): 3070 nM
GI50 (SF-268 CNS): 1490 nM
TGI (SF-268 CNS): 3150 nM
GI50 (SF-295 CNS): 1770 nM
TGI (SF-295 CNS): 3190 nM
GI50 (SF-539 CNS): 1670 nM
TGI (SF-539 CNS): 3090 nM
GI50 (SK-MEL-2 melanoma): 2070 nM
TGI (SK-MEL-2 melanoma): 4040 nM
GI50 (SK-MEL-28 melanoma): 1720 nM
TGI (SK-MEL-28 melanoma): 3190 nM
GI50 (SK-MEL-5 melanoma): 1670 nM
TGI (SK-MEL-5 melanoma): 3040 nM
GI50 (SN12C renal): 1630 nM
TGI (SN12C renal): 3100 nM
GI50 (SNB-19 CNS): 1500 nM
TGI (SNB-19 CNS): 2870 nM
GI50 (SNB-75 CNS): 1380 nM
TGI (SNB-75 CNS): 2710 nM
GI50 (SR leukemia): 379 nM
TGI (SR leukemia): 1790 nM
GI50 (SW-620 colon): 1730 nM
TGI (SW-620 colon): 3280 nM
GI50 (TK-10 renal): 577 nM
TGI (TK-10 renal): 2320 nM
GI50 (UACC-62 melanoma): 1700 nM
TGI (UACC-62 melanoma): 3240 nM
GI50 (UO-31 renal): 1180 nM
TGI (UO-31 renal): 2490 nM
